Consider ten molecules from PubChem BioAssay AID1259407 (Chemical Carcinogenesis Research Information System (CCRIS), 2018).

The subject of this data set is CCRIS mutagenicity, Ames/micronucleus/aberration tests. Description: CCRIS mutagenicity studies.
[1] abbreviates: Test System: AMES SALMONELLA TYPHIMURIUM, Strain/Indicator: TA98, Metabolic Activation: NONE, Method: PREINCUBATION
[2] abbreviates: Test System: AMES SALMONELLA TYPHIMURIUM, Strain/Indicator: TA98, Metabolic Activation: NONE, Method: STANDARD PLATE.
Setting [3] is: Test System: AMES SALMONELLA TYPHIMURIUM, Strain/Indicator: TA100, Metabolic Activation: NONE, Method: STANDARD PLATE.
Setting [4] is: Test System: AMES SALMONELLA TYPHIMURIUM, Strain/Indicator: TA1538, Metabolic Activation: NONE, Method: STANDARD PLATE.
Where [5] appears, read: Test System: AMES SALMONELLA TYPHIMURIUM, Strain/Indicator: TA100, Metabolic Activation: RAT, S-9, AROCLOR, Method: STANDARD PLATE.
Where [6] appears, read: Test System: AMES SALMONELLA TYPHIMURIUM, Strain/Indicator: TA100, Metabolic Activation: NONE, Method: PREINCUBATION
[7] abbreviates: Test System: AMES SALMONELLA TYPHIMURIUM, Strain/Indicator: TA100, Metabolic Activation: RAT, LIVER, S-9, AROCLOR 1254, Method: STANDARD PLATE.
Setting [8] is: Test System: AMES SALMONELLA TYPHIMURIUM, Strain/Indicator: TA1535, Metabolic Activation: NONE, Method: STANDARD PLATE.
Setting [9] is: Test System: AMES SALMONELLA TYPHIMURIUM, Strain/Indicator: TA1535, Metabolic Activation: RAT, LIVER, S-9, AROCLOR 1254, Method: STANDARD PLATE.
Where [10] appears, read: Test System: AMES SALMONELLA TYPHIMURIUM, Strain/Indicator: TA98(1,8-DNP6), Metabolic Activation: NONE, Method: PREINCUBATION
Where [11] appears, read: Test System: AMES SALMONELLA TYPHIMURIUM, Strain/Indicator: TA98(NR), Metabolic Activation: NONE, Method: PREINCUBATION

Activity calls are given as the source filed them. The rule behind the calls is not given here.

`C[C@@H]1O[C@@H](O[C@H]2C[C@](O)(C(=O)CO)Cc3c(O)c4c(c(O)c32)C(=O)c2ccccc2C4=O)C[C@H](N)[C@@H]1O`: the mutagenic call reads like this: (Test System: AMES SALMONELLA TYPHIMURIUM, Strain/Indicator: GW257, Metabolic Activation: NONE, Method: STANDARD PLATE) “active; positive”; (Test System: AMES SALMONELLA TYPHIMURIUM, Strain/Indicator: TA97, Metabolic Activation: NONE, Method: STANDARD PLATE) “inactive; negative”; under setting [1], “active; positive”; under setting [2], “active; positive”; under setting [3], “active; positive”; (Test System: AMES SALMONELLA TYPHIMURIUM, Strain/Indicator: TA104, Metabolic Activation: NONE, Method: STANDARD PLATE) “inactive; negative”. For the same molecule, the mutagenic call reads like this: under setting [4], “active; positive”; (Test System: AMES SALMONELLA TYPHIMURIUM, Strain/Indicator: TA2637, Metabolic Activation: NONE, Method: STANDARD PLATE) “active; positive”; (Test System: CHINESE HAMSTER V-79, Strain/Indicator: V-79/6-THIOGUANINE, Metabolic Activation: NONE, Method: SUSPENSION/PLATE) “active; positive”; (Test System: CHINESE HAMSTER V-79, Strain/Indicator: V-79/6-THIOGUANINE, Metabolic Activation: RAT, LIVER, HOMOGENATE, Method: SUSPENSION/PLATE) “inactive; negative”; (Test System: UDS RAT HEPATOCYTES, Strain/Indicator: THY INCORP, Metabolic Activation: NONE, Method: AUTOMATIC COLONY COUNTER) “active; positive”.
`CCCCOc1cc(Cl)ccc1C(=O)NOC(C)=O`: the mutagenic call was “active; positive” under setting [3] and “active; positive” under setting [5].
As for `CCOP(=S)(OCC)Oc1ccc([N+](=O)[O-])cc1`, the mutagenic call was “inactive; negative” under setting [1]; “inactive; negative” (Test System: AMES SALMONELLA TYPHIMURIUM, Strain/Indicator: TA98, Metabolic Activation: RAT, LIVER, S-9, KANECHLOR 500, Method: PREINCUBATION); “active; positive” under setting [6]; “inactive; negative” under setting [3]; “active; positive” (Test System: AMES SALMONELLA TYPHIMURIUM, Strain/Indicator: TA100, Metabolic Activation: RAT, LIVER, S-9, KANECHLOR 500, Method: PREINCUBATION); “active; positive” (Test System: AMES SALMONELLA TYPHIMURIUM, Strain/Indicator: TA100, Metabolic Activation: S-9, Method: STANDARD PLATE).
With `CCN(CC)CCCN(c1ccccc1)C1Cc2ccccc2C1`, the mutagenic call under setting [1] was “inactive; negative”; the mutagenic call (Test System: AMES SALMONELLA TYPHIMURIUM, Strain/Indicator: TA98, Metabolic Activation: S-9, Method: PREINCUBATION) is “inactive; negative”; the mutagenic call under setting [6] is “inactive; negative”; the mutagenic call (Test System: AMES SALMONELLA TYPHIMURIUM, Strain/Indicator: TA100, Metabolic Activation: S-9, Method: PREINCUBATION) was “inactive; negative”; the mutagenic call (Test System: AMES SALMONELLA TYPHIMURIUM, Strain/Indicator: TA1535, Metabolic Activation: NONE, Method: PREINCUBATION) is “inactive; negative”; the mutagenic call (Test System: AMES SALMONELLA TYPHIMURIUM, Strain/Indicator: TA1535, Metabolic Activation: S-9, Method: PREINCUBATION) was “inactive; negative”. In addition, the mutagenic call (Test System: AMES SALMONELLA TYPHIMURIUM, Strain/Indicator: TA1537, Metabolic Activation: NONE, Method: PREINCUBATION) was “inactive; negative”; the mutagenic call (Test System: AMES SALMONELLA TYPHIMURIUM, Strain/Indicator: TA1537, Metabolic Activation: S-9, Method: PREINCUBATION) is “inactive; negative”; the mutagenic call (Test System: AMES SALMONELLA TYPHIMURIUM, Strain/Indicator: TA1538, Metabolic Activation: NONE, Method: PREINCUBATION) was “inactive; negative”; the mutagenic call (Test System: AMES SALMONELLA TYPHIMURIUM, Strain/Indicator: TA1538, Metabolic Activation: S-9, Method: PREINCUBATION) is “inactive; negative”; the mutagenic call (Test System: E. COLI, Strain/Indicator: WP2 UVRA, Metabolic Activation: NONE, Method: PREINCUBATION) is “inactive; negative”; the mutagenic call (Test System: E. COLI, Strain/Indicator: WP2 UVRA, Metabolic Activation: S-9, Method: PREINCUBATION) is “inactive; negative”.
Regarding `CCOCC1CO1` (stereo not given), the mutagenic call runs as follows: under setting [3], “active; positive”; under setting [7], “active; positive”; under setting [8], “active; positive”; under setting [9], “active; positive”.
In the case of `CC(=O)Oc1cc([N+](=O)[O-])c2ccc3cccc4ccc1c2c43`, the mutagenic call runs as follows: under setting [10], “active; positive”; under setting [11], “active; positive”; under setting [1], “active; positive”; (Test System: AMES SALMONELLA TYPHIMURIUM, Strain/Indicator: TA98, Metabolic Activation: RAT, LIVER, S-9, AROCLOR 1254, Method: PREINCUBATION) “inactive; negative”; under setting [6], “active; positive”; (Test System: AMES SALMONELLA TYPHIMURIUM, Strain/Indicator: TA100, Metabolic Activation: RAT, LIVER, S-9, AROCLOR 1254, Method: PREINCUBATION) “active; positive”.
For the molecule `O=[N+]([O-])c1ccc(Br)c([N+](=O)[O-])c1`, the mutagenic call by setting is: under setting [10], “active; positive”; under setting [11], “active; positive”; under setting [1], “active; positive”; (Test System: AMES SALMONELLA TYPHIMURIUM, Strain/Indicator: TA100(NR), Metabolic Activation: NONE, Method: PREINCUBATION) “active; positive”; (Test System: AMES SALMONELLA TYPHIMURIUM, Strain/Indicator: TA100/GSH-, Metabolic Activation: NONE, Method: PREINCUBATION) “active; positive”; under setting [6], “active; positive”.
Consider `COc1ccc(CON(OC(C)=O)C(=O)c2ccccc2)cc1`, for which the mutagenic call is “active; positive” under setting [3] and “active; positive” under setting [5].
For the molecule `CCn1c2ccccc2c2ccccc21`, the mutagenic call (Test System: UDS PRIMARY RAT HEPATOCYTES, Strain/Indicator: THY INCORP, Metabolic Activation: NONE, Method: AUTORADIOGRAPHY) is “active; positive”.
Take `O=[N+]([O-])C1=Cc2ccc3ccc4cccc5cc1c2c3c45`: the mutagenic call reads like this: under setting [2], “active; positive”; (Test System: AMES SALMONELLA TYPHIMURIUM, Strain/Indicator: TA98, Metabolic Activation: RAT, LIVER, S-9, AROCLOR 1254, Method: STANDARD PLATE) “active; positive”; under setting [3], “active; positive”; under setting [7], “inactive; negative”; under setting [8], “inactive; negative”; under setting [9], “inactive; negative”. Moreover, the mutagenic call runs as follows: (Test System: AMES SALMONELLA TYPHIMURIUM, Strain/Indicator: TA1537, Metabolic Activation: NONE, Method: STANDARD PLATE) “active; positive”; (Test System: AMES SALMONELLA TYPHIMURIUM, Strain/Indicator: TA1537, Metabolic Activation: RAT, LIVER, S-9, AROCLOR 1254, Method: STANDARD PLATE) “active; positive”; under setting [4], “active; positive”; (Test System: AMES SALMONELLA TYPHIMURIUM, Strain/Indicator: TA1538, Metabolic Activation: RAT, LIVER, S-9, AROCLOR 1254, Method: STANDARD PLATE) “active; positive”.
